What was measured:
[1] = target: T1, CDK2-CYCLINA (Homo sapiens, UniProt P24941); assay: CDK inhibition assay (microfluidic LabChip, IC50 format); assay type: biochemical; settings: Table 4a; read-out: CDK2 CyclinA IC50
T1 construct: purchased Millipore

[2] = target: T2, CDK6-CYCLIND3 (Homo sapiens, UniProt Q00534); assay: as above; assay type: biochemical; settings: Table 4a; read-out: CDK6 CyclinD3 IC50
T2 construct: purchased Carna

[3] = target: CDK7 CyclinH (Homo sapiens, UniProt P50613); assay: as above; assay type: biochemical; settings: Table 4a
[4] = target: T3, CDK9-CYCLINT1 (Homo sapiens, UniProt P50750); assay: as above; assay type: biochemical; settings: Table 4a; read-out: CDK9 CyclinT1 IC50
T3 construct: purchased Carna

[5] = tested on: LEXFAL MOLT-4; assay: 2D cell proliferation assay (CellTiter-Blue); assay type: cell-based; settings: Homo sapiens, 72 h, three days of treatment, read-out: abs. IC50
Procedure: (§1) Viability of the cells was analyzed by using the CellTiter-Blue® Cell Viability Assay (Promega), and was performed according to manufacturer's instructions. Briefly, cells were harvested from exponential phase cultures (Chapter 6.6), counted and plated in 96-well flat-bottom microtiter plates at a cell density of 4,000-60,000 cells/well in a volume of 140 μl per well. After a 24 hours recovery period, 10 μL cell culture medium (six control wells/plate) or culture medium with test compound were added (Chapter 6.2). The compounds were applied at five concentrations in full-log increments up to 100 μM in duplicate. Cultures were incubated at 37° C. and 5% CO2 in a humidified atmosphere for another three days. After three days of treatment, 20 μl/well CellTiter-Blue® reagent was added. Following incubation with CellTiter-Blue® reagent for up to four hours, fluorescence (FU) was measured by using the Enspire Multimode Plate Reader (excitation λ=570 nm, emission λ=600 nm). For calculations, the mean values of duplicate/sextuplicate (untreated control) data were used.
(§2) An assay was considered fully evaluable if the following quality control criteria were fulfilled: • control/background ratio>3.0-Z′-factor calculated within the assay plate>0.5 [7]—coefficient of variation in the growth control wells <30%
(§3) Drug effects were expressed in terms of the percentage of the fluorescence signal, obtained by comparison of the mean signal in the treated wells with the mean signal of the untreated controls (expressed by the test-versus-control value, T/C-value [%]):
(§4) IC values are reported as relative IC50 values and absolute IC50 and IC70 values. […] The absolute IC70 value gives the concentration of the test compound that achieves T/C=30%. The relative IC50 value is the concentration of test compound that gives a response halfway between the top and bottom plateau of the sigmoidal concentration-response curve (inflection point of the curve). Calculation was done by 4parameter non-linear curve fit (Oncotest Data Warehouse Software).
(§5) If an IC50 or IC70 value could not be determined within the examined dose range (because a compound was either too active or lacked activity), the lowest or highest concentration studied was used for calculation of the geometric mean value.

[6] = tested on: LEXFAM MV4-11; assay: 2D cell proliferation assay (CellTiter-Blue); assay type: cell-based; settings: Homo sapiens, 72 h, three days of treatment, read-out: abs. IC50
Procedure: as §1, §2, §3, §4, §5

[7] = tested on: LXFA A549; assay: 2D cell proliferation assay (CellTiter-Blue); assay type: cell-based; settings: Homo sapiens, 72 h, three days of treatment, read-out: abs. IC50
Procedure: as §1, §2, §3, §4, §5

[8] = tested on: LXFL NCl-H1299; assay: 2D cell proliferation assay (CellTiter-Blue); assay type: cell-based; settings: 72 h, three days of treatment, read-out: abs. IC50
Procedure: as §1, §2, §3, §4, §5

[9] = tested on: MAXFLB MCF7 (ER+); assay: 2D cell proliferation assay (CellTiter-Blue); assay type: cell-based; settings: Homo sapiens, 72 h, three days of treatment, read-out: abs. IC50
Procedure: as §1, §2, §3, §4, §5

[10] = tested on: MAXFTN MDA-MB-231 (ER−); assay: 2D cell proliferation assay (CellTiter-Blue); assay type: cell-based; settings: Homo sapiens, 72 h, three days of treatment, read-out: abs. IC50
Procedure: as §1, §2, §3, §4, §5

[11] = tested on: MAXFTN ZR-75-1 (ER+); assay: 2D cell proliferation assay (CellTiter-Blue); assay type: cell-based; settings: Homo sapiens, 72 h, three days of treatment, read-out: abs. IC50
Procedure: as §1, §2, §3, §4, §5

[12] = tested on: MEXF WM-266-4; assay: 2D cell proliferation assay (CellTiter-Blue); assay type: cell-based; settings: Homo sapiens, 72 h, three days of treatment, read-out: abs. IC50
Procedure: as §1, §2, §3, §4, §5

[13] = tested on: all cell lines tested; assay: 2D cell proliferation assay, geometric mean over the cell line panel; assay type: cell-based; settings: Table 5 lower part; geometric mean over the 8-line panel; read-out: Geomean abs. IC50 value
Procedure: as §1, §4, §5
The overall potency of a compound was determined by the geometric mean IC50/IC70 values of all individual IC50/IC70 values. In the heatmap representation of IC50 and IC70 values, the distribution of the IC50 or IC70 values obtained for a test compound in the individual cell lines is given in relation to the geometric mean IC50 or IC70 value, obtained over all PDX models tested. The individual IC values range from 1/32-fold geometric mean IC (corresponding to very potent compound activity or high tumor sensitivity) to 32-fold geometric mean IC (corresponding to lack of compound activity or tumor resistance). The heatmap presentation, therefore, represents an antiproliferative “fingerprint” profile of a test compound.

[14] = Pharmacokinetics after IV bolus; assay type: in vivo; settings: rat, plasma; rats; IV bolus 30 mg/kg; N = 3
Procedure: (§6) Nonclinical pharmacokinetic (PK) parameters of lead CDK4/6/9 inhibitors were determined in an intravenous (IV) and oral study (p.o.) conducted in rats. Lead compounds were each administered as a single oral dose at 100 mg/kg or by IV bolus via the caudal vein at the dose of 30 mg/kg. Blood samples were collected at 0.25, 0.5, 1, 2, 4, 8, 12, and 24 hours post i.v. administration, and at 1, 2, 4, 8, 24 and 48 hours post oral administration. Plasma was processed for drug concentration analysis using a validated LCMS/MS method, and PK parameters were calculated by using WinNonlin.

[15] = Pharmacokinetics after oral administration; assay type: in vivo; settings: rat, plasma, rats
Procedure: as §6

[16] = target: CDK4-CYCLIND1 (Homo sapiens, UniProt P11802); assay: CDK inhibition assay (microfluidic LabChip, IC50 format); settings: CDK4 CyclinD1 IC50, Table 4a; a second value in parentheses for some compounds
[17] = oral administration 100 mg/kg, N = 3

T2 sequence (Q00534 whole entry): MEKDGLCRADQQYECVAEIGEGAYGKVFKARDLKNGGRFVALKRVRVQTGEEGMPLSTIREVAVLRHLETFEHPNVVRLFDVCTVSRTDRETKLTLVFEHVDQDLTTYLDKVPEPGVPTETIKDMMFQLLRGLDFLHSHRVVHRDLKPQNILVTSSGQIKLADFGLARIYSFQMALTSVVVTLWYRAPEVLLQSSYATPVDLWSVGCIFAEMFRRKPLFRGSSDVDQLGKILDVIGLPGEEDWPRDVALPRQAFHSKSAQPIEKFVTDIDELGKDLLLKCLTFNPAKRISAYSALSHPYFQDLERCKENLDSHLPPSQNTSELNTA
T2 sequence (P30281 whole entry partner): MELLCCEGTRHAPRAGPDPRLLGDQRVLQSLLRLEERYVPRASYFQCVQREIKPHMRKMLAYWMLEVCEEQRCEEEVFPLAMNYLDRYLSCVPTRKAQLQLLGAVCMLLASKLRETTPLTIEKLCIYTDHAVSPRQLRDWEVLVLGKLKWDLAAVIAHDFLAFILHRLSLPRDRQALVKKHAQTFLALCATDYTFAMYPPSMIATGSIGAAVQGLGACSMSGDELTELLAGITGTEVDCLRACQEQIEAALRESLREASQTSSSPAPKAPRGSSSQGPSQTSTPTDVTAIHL
Chain of CDK7 CyclinH (P50613 whole entry): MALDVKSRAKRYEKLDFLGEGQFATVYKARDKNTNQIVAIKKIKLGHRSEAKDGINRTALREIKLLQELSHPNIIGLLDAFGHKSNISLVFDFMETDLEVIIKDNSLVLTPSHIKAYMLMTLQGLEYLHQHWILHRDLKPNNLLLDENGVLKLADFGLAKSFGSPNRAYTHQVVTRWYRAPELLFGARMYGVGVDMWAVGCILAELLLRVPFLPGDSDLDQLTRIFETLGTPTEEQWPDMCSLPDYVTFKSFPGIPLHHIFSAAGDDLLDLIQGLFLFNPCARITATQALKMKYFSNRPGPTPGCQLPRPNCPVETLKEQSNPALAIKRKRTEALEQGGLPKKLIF
Chain of CDK7 CyclinH (P51946 whole entry partner): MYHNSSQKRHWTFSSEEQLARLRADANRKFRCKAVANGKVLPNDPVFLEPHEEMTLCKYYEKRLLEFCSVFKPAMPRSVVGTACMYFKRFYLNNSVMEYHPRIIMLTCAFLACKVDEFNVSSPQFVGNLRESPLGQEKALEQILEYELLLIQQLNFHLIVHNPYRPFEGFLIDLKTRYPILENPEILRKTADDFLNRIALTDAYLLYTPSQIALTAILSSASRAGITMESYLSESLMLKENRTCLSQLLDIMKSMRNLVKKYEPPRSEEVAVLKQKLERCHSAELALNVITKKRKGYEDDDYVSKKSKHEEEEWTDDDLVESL
Chain of CDK7 CyclinH (P51948 whole entry partner): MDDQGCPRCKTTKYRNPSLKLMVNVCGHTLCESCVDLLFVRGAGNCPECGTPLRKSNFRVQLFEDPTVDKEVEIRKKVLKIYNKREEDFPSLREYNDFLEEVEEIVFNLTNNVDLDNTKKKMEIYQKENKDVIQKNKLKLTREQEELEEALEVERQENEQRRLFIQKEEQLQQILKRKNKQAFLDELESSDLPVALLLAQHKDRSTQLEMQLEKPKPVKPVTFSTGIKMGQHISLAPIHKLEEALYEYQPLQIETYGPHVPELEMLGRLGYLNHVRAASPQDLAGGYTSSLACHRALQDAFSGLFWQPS
T3 sequence (P50750 whole entry): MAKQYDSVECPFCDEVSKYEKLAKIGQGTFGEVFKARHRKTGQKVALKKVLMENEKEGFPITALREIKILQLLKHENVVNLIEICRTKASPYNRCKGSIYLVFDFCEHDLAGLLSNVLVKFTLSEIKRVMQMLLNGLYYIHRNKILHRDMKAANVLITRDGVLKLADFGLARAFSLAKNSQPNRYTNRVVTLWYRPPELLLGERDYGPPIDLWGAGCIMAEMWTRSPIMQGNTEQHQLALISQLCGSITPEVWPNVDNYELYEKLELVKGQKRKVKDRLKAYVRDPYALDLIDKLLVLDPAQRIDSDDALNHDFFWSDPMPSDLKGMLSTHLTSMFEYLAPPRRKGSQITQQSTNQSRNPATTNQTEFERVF
T3 sequence (O60563 whole entry partner): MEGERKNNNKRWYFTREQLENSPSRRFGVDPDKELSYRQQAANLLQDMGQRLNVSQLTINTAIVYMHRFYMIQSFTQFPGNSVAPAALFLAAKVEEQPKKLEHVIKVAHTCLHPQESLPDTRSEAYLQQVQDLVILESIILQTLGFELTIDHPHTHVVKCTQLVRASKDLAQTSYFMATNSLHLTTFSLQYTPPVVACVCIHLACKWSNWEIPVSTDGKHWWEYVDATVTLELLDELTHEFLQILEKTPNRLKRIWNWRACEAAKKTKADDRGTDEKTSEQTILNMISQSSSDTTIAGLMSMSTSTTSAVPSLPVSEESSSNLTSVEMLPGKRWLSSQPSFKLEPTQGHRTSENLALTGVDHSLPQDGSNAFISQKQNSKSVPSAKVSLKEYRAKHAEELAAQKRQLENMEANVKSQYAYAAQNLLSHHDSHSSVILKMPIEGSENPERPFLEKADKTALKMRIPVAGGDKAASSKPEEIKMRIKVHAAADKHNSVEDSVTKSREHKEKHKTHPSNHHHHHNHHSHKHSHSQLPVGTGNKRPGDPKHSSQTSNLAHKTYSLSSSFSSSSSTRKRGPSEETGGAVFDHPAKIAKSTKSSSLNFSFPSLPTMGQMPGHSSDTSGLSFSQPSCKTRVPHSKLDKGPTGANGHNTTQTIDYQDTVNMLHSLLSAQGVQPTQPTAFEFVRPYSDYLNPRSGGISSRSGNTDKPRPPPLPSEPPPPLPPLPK
Chain of CDK4-CYCLIND1 (P11802 whole entry): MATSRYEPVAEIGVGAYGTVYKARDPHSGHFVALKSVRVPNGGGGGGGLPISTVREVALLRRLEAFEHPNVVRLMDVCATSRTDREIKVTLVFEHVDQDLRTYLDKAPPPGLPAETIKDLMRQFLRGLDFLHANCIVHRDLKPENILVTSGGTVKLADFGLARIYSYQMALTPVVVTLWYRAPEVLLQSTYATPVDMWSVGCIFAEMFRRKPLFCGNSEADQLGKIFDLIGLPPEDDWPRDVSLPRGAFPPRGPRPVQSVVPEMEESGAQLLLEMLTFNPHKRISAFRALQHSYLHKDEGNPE
Chain of CDK4-CYCLIND1 (P24385 whole entry partner): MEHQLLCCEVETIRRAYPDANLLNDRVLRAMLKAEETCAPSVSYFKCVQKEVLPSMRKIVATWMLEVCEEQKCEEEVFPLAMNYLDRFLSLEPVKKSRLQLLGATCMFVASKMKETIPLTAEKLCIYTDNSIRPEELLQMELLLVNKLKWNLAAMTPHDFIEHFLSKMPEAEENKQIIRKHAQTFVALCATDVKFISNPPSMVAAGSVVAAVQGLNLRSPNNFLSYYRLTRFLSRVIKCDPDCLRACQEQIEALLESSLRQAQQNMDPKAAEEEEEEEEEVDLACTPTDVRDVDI

IC50 [1]: 0.0217 µM
IC50 [2]: 0.00165 µM
IC50 [3]: 0.153 µM
IC50 [4]: 0.00502 µM
IC50 [5]: 0.084 µM
IC50 [6]: ≤ 0.01 µM
IC50 [7]: 0.148 µM
IC50 [8]: 0.108 µM
IC50 [9]: 0.088 µM
IC50 [10]: 0.3 µM
Cmax [14]: 7.73 µg/mL
clearance [14]: 2.11 L/h/kg
half-life [14]: 1.93 h
bioavailability ([15]; oral 100 mg/kg versus IV 30 mg/kg, read-out: BIOAVAILABILITY F): 43.8%
AUC [15, 17]: 21.5 µg·h/mL
Cmax [15, 17]: 4.47 µg/mL
MRT [15, 17]: 4.37 h
half-life [15, 17]: 5.6 h
IC50 [16]: 0.000784 µM
Compound: CC(C)N1CCN(c2ccc(Nc3ncc4c(n3)N(C3CCCC3)C(=O)[C@]3(CCNC3=O)C4)cc2)CC1 [Example D145, (S)-8-cyclopentyl-2-((4-(4-isopropylpiperazin-1-yl)phenyl)amino)-5,8-dihydro-7H-spiro[pyrido[2,3-d]pyrimidine-6,3′-pyrrolidine]-2′,7-dione]
IC50 [11]: ≥ 100 µM
IC50 [12]: 0.047 µM
IC50 [13]: 0.189 µM

Reference: patent publication US20230048132A1, “CYCLIN-DEPENDENT KINASE INHIBITORS” (SPV THERAPEUTICS INC., priority 2018, published 2023)
